Common to all, as to format: biochemical
The target of assay [1] is Pim-2 (Homo sapiens (Human), UniProt Q9P1W9). The assay is described as follows: Pim-2 kinase assay. As to conditions: 1 mM ATP, fluorescein-labeled CREBtide peptide substrate; read-out: Pim2 IC50. The procedure, abridged:
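Phosphorylated CREBtide was detected by terbium anti-pSer133 antibody TR-FRET after EDTA quench and 30 min at room temperature. Reactions ran 2 h at 25 °C with 1 mM ATP, 0.05 μM fluorescein-labelled substrate and 1 nM enzyme in pH 7.5 Tris buffer.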

Assay [2] concerns the target Pim-3 (Homo sapiens (Human), UniProt Q86V86). The assay can be described thus: Pim-3 kinase assay. Particulars: 1 mM ATP, biotin-labeled BAD peptide substrate; read-out: Pim3 IC50. The gist of the method:
(§1)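 Biotin-BAD peptide ([…]) phosphorylated with 1 mM ATP by 2.5 pM Pim-1 or 1.25 pM Pim-3, 1 h at 25 °C in Tris pH 7.5, MgCl2, DTT buffer. EDTA stop with anti-phospho-BAD (Ser112) antibody and AlphaScreen streptavidin donor/Protein-A acceptor beads; signal read after 1 h dark incubation.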

In assay [3] the target is Pim-1 (Homo sapiens (Human), UniProt P11309). The assay can be described thus: Pim-1 kinase assay. Particulars: 1 mM ATP, biotin-labeled BAD peptide substrate; read-out: Pim1 IC50. The gist of the method:
as §1

Each structure is given as a SMILES string.

Sequence of Pim-1 (P11309 whole entry): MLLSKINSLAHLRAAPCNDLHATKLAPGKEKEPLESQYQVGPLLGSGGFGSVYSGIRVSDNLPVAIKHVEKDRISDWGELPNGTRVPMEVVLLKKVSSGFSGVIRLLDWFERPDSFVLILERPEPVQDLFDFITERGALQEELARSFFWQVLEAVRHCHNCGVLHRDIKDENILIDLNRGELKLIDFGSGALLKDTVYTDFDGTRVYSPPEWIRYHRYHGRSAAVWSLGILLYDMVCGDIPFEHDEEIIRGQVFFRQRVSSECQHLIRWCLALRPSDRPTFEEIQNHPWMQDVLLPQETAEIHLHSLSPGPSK
Sequence of Pim-2 (Q9P1W9 whole entry): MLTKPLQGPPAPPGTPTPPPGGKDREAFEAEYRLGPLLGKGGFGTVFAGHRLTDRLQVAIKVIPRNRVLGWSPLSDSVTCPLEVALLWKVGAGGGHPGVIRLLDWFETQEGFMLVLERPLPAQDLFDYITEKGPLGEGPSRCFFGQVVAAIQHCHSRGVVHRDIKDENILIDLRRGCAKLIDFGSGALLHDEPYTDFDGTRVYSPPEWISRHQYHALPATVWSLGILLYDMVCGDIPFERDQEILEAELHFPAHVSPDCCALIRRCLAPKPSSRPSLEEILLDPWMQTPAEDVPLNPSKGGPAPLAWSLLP

In general, IC50 refers to the point on the concentration scale where inhibition reaches its midpoint. `C[C@@H]1C[C@H](N)CN(c2ccncc2NC(=O)c2c(N)oc3cc(OC(F)F)cnc23)C1` [Example 120, 2-Amino-N-(4-((3S,5R)-3-amino-5-methylpiperidin-1-yl)pyridin-3-yl)-6-(difluoromethoxy)furo[3,2-b]pyridine-3-carboxamide]: the values for the 50% inhibitory concentration (IC50) in assay [1], in assay [2] and in assay [3] were 10 to 100 nM, at most 10 nM and at most 10 nM, respectively.
Turning to `CC(C)Oc1cnc2c(C(=O)Nc3cnccc3N3C[C@H](C)C[C@H](N)C3)c(N)oc2c1` [Example 121, 2-Amino-N-(4-((3S,5R)-3-amino-5-methylpiperidin-1-yl)pyridin-3-yl)-6-isopropoxyfuro[3,2-b]pyridine-3-carboxamide], the values for the IC50 in assay [1], in assay [2] and in assay [3] were 10 to 100 nM, at most 10 nM and at most 10 nM, respectively.
Consider `C[C@@H]1C[C@H](N)CN(c2ccncc2NC(=O)c2c(N)oc3cc(C4CCOC4)cnc23)C1` (stereo partly drawn) [Example 122, 2-Amino-N-(4-((3S,5R)-3-amino-5-methylpiperidin-1-yl)pyridin-3-yl)-6-(tetrahydrofuran-3-yl)furo[3,2-b]pyridine-3-carboxamide], for which the IC50 in assay [1], in assay [2] and in assay [3] was at most 10 nM in each case.
Take `Nc1oc2cc(C3CCOC3)cnc2c1C(=O)Nc1cnccc1N1C[C@@H](N)C[C@@H](C(F)(F)F)C1` (stereo partly drawn) [Example 123, 2-Amino-N-{4-[(3S,5R)-3-amino-5-(trifluoromethyl)piperidin-1-yl]pyridin-3-yl}-6-(tetrahydrofuran-3-yl)furo[3,2-b]pyridine-3-carboxamide]: the IC50 in assay [1], in assay [2] and in assay [3] was at most 10 nM in each case.
For the molecule `C[C@H]1CN(c2ccncc2NC(=O)c2c(N)oc3cc(C4CCC4)cnc23)C[C@@H](N)[C@@H]1O` [Example 124, 2-Amino-N-{4-[(3R,4R,5S)-3-amino-4-hydroxy-5-methylpiperidin-1-yl]pyridin-3-yl}-6-cyclobutylfuro[3,2-b]pyridine-3-carboxamide], the IC50 in assay [1], in assay [2] and in assay [3] was at most 10 nM in each case.
On to `Nc1oc2cc(C3CCC3)cnc2c1C(=O)Nc1cnccc1N1C[C@@H](N)[C@H](O)[C@@H](C2CC2)C1` [Example 125, 2-Amino-N-{4-[(3R,4R,5S)-3-amino-5-cyclopropyl-4-hydroxypiperidin-1-yl]pyridin-3-yl}-6-cyclobutylfuro[3,2-b]pyridine-3-carboxamide], for which the IC50 in assay [1], in assay [2] and in assay [3] was at most 10 nM throughout.
Regarding `CNC(=O)c1ccc(-c2cnc3c(C(=O)Nc4cnccc4N4C[C@@H](N)C[C@@H](C(F)(F)F)C4)c(N)oc3c2)cn1` [Example 126], the IC50 in assay [1] was 10 to 100 nM; in assay [2], at most 10 nM; in assay [3] it was at most 10 nM.
Consider `CNC(=O)c1ccc(-c2cnc3c(C(=O)Nc4cnccc4N4C[C@H](C)C[C@H](N)C4)c(N)oc3c2)cn1` [Example 127, 2-Amino-N-(4-((3S,5R)-3-amino-5-methylpiperidin-1-yl)pyridin-3-yl)-6-(6-(methylcarbamoyl)pyridin-3-yl)furo[3,2-b]pyridine-3-carboxamide], for which the figures for the IC50 in assay [1], in assay [2] and in assay [3] were 10 to 100 nM, at most 10 nM and at most 10 nM, respectively.
Regarding `Nc1oc2cc(C3CC3)cnc2c1C(=O)Nc1cnccc1N1C[C@@H](N)[C@H](O)[C@@H](C2CC2)C1` [Example 128, 2-Amino-N-(4-((3R,4R,5S)-3-amino-5-cyclopropyl-4-hydroxypiperidin-1-yl)pyridin-3-yl)-6-cyclopropylfuro[3,2-b]pyridine-3-carboxamide], the IC50 in assay [1] was 10 to 100 nM; in assay [2], at most 10 nM; in assay [3], at most 10 nM.
Take `Nc1oc2cc(C(F)(F)F)cnc2c1C(=O)Nc1cnccc1N1C[C@@H](N)[C@H](O)[C@@H](C2CC2)C1` [Example 129, 2-Amino-N-(4-((3R,4R,5S)-3-amino-5-cyclopropyl-4-hydroxypiperidin-1-yl)pyridin-3-yl)-6-(trifluoromethyl)furo[3,2-b]pyridine-3-carboxamide]: the IC50 in assay [1] was 10 to 100 nM; in assay [2], at most 10 nM; in assay [3], at most 10 nM.
